Test results from patent US20240002388A1, “PYRIMIDINONE COMPOUNDS AND USES THEREOF” (HUTCHISON MEDIPHARMA LIMITED, priority 2020, published 2024).
pIC50: −log10 of the molar value.

The molecules below were run on L929 cell line (mouse fibroblastoma cell line) (assay: L929 cell viability assay (mTNF-α + Z-VAD-FMK induced necroptosis)). Conditions: L929 cells, mTNF-α 0.1 μg/mL + Z-VAD-FMK 5 μM, 20 hours, CellTiter-Glo.
Format: cell-based
Procedure: L929 cell line (mouse fibroblastoma cell line): purchased from ATCC (American Type Culture Collection) Cell Bank, cultured in 5% CO2, 37° C. incubator, and MEM medium which contains L-Glutamine, with 10% FBS was used. • MEM medium: GIBCO, Cat #11095080; • Fetal bovine serum (FBS): GIBCO, Cat #10099-141C; • Dimethyl sulfoxide (DMSO): Sigma, Cat #D2650; • 0.25% Trypsin-EDTA: GIBCO, Cat #25200072; • Recombinant Mouse TNF-alpha Protein (mTNF-α): R&D system, Cat #410-MT-050; • Pan-Caspase inhibitor (Z-VAD-FMK): Selleckchem, Cat #S7023; • CellTiter-Glo 2.0 Cell Viability Assay kit: Promega, Cat #G9242; • Microwell plate reader: Envision, Perkin Elmer; • 96-well plate: Corning, Cat #3917.
The L929 cells at the logarithmic phase were taken out, and the supernatant was discarded. After trypsinization and cell shedding, 10% FBS-containing medium was added for neutralization, and the supernatant was discarded after centrifugation. The cells were re-suspended using 10% FBS-containing medium, adjusted to 7×10^4 cells/ml, added to 96-well microplate at 70 μL/well, i.e., 4.9×10^3 cells/well. Then the plate was incubated in a 5% CO2, 37° C. cell incubator overnight.
After incubating overnight, the 96-well plate was taken out, the medium was discarded, and the plate was washed with 1% FBS-containing MEM medium. Then 1% FBS-containing MEM medium was added at 70 μL/well, and the plate was cultured in a 5% CO2, 37° C. cell incubator. After incubating for 1 hour, the test compound was diluted to the corresponding concentrations using DMSO with 3-fold serial dilution, then the corresponding concentration of DMSO diluted solution was diluted into 1% FBS-containing MEM medium, and 10 μL/well of the diluted test compound with different concentrations (final concentrations of test compound were 10, 3.33, 1.11, 0.37, 0.12, 0.04, 0.014 and 0.005 μM, while final concentration of DMSO was 0.3%) or 10 μL/well control solution (3% DMSO) were added to the cell culture system respectively, with the total volume being 80 μL/well. Then 10 μL of Z-VAD-FMK solution diluted with 1% FBS-containing MEM medium (final concentration of 5 μM) or 10 μL of control solution (2.5% DMSO) was added to each well, with the total volume being 90 μL/well. The plate was incubated in a 5% CO2, 37° C. cell culture incubator for 1 hour.
After incubating for 1 hour, 10 μL of recombinant mouse TNF-α protein solution diluted with 1% FBS-containing MEM medium (final concentration of 0.1 μg/mL) or 10 μL control solution (1% FBS-containing MEM medium) was added to each well. The plate was incubated in a 5% CO2, 37° C. cell culture incubator for 20 hours.
The cell culture plate was taken out from the incubator, and left to stand at room temperature for 30 minutes. Meanwhile, CellTiter-Glo viability assay kit was put from freezer to room temperature, and 50 μL of CellTiter-Glo reagent was added to all wells, the plate was shaken for 1 minutes, protected from light at room temperature for 10 minutes then read the plate on Envision to get the luminescence signal.
The 96-well plate in the dark was taken out, and the chemiluminescence was determined using the Envision microwell plate reader as the signal value of each well.
The mean signal value of the wells of the mixed solution of recombinant mouse TNF-alpha protein (final concentration of 0.1 μg/mL) and Pan-Caspase inhibitor (final concentration of 5 μM) was used as the lower value, and the mean signal value of the wells without stimulation was used as the upper value. According to the signal value of each well, the inhibition rate of each concentration of every compound was calculated, and the IC50 value of compound was obtained by Model 205 in XL-Fit 5.3 software (ID Business Solutions Limited).
Inhibition rate %=[(Luminescence readout of treated compound−Luminescence readout of positive control)/(Luminescence readout of negative control−Luminescence readout of positive control)]×100%, wherein

Row | Compound | pIC50
1 | CC(C)n1ncc2cnc(C(=O)NC3(c4ccc(-c5cncn([C@H]6C[C@@H](F)C6)c5=O)cc4)CC3)nc21 [Compound 88, N-(1-(4-(1-(cis-3-fluorocyclobutyl)-6-oxo-1,6-dihydropyrimidin-5-yl)phenyl)cyclopropyl)-1-i-propyl-1H-pyrazolo[3,4-d]pyrimidine-6-carboxamide] | 6.47

Same assay, conditions: Mus musculus, L929, 20 h, L929 cells, mTNF-α 0.1 μg/mL + Z-VAD-FMK 5 μM, CellTiter-Glo

Row | Compound | pIC50
2 | CC(C)n1ncc2cnc(C(=O)NC3(c4ccc(-c5cncn(C6COC6)c5=O)cc4)CC3)nc21 [Compound 41] | 5.71
3 | CC(C)n1ncc2cnc(C(=O)NC3(c4ccc(-c5cncn(C6CCC6)c5=O)cc4)CC3)nc21 [Compound 42] | 6.92
4 | CC[C@H](C)n1cncc(-c2ccc(C3(NC(=O)c4ncc5cnn(C(C)C)c5n4)CC3)cc2)c1=O [Compound 43] | 7.80
5 | CC[C@@H](C)n1cncc(-c2ccc(C3(NC(=O)c4ncc5cnn(C(C)C)c5n4)CC3)cc2)c1=O [Compound 44] | 7.55
6 | CC(C)Cn1cncc(-c2ccc(C3(NC(=O)c4ncc5cnn(C(C)C)c5n4)CC3)cc2)c1=O [Compound 45] | 7.24
7 | Cn1cncc(-c2ccc(C3(NC(=O)c4nc5n(n4)[C@@H](c4ccccc4)CC5)CC3)cc2)c1=O [Compound 54, (R)—N-(1-(4-(1-methyl-6-oxo-1,6-dihydropyrimidin-5-yl)phenyl)cyclopropyl)-5-phenyl-6,7-dihydro-5H-pyrrolo[1,2-b][1,2,4]triazole-2-carboxamide] | 6.24
8 | C[C@H](c1ccccc1)n1cnc(C(=O)NC2(c3ccc(-c4cncn(C)c4=O)cc3)CC2)n1 [Compound 55, (R)—N-(1-(4-(1-methyl-6-oxo-1,6-dihydropyrimidin-5-yl)phenyl)cyclopropyl)-1-(1-phenylethyl)-1H-1,2,4-triazole-3-carboxamide] | 6.59
9 | CC(C)n1cncc(-c2ccc(C3(NC(=O)c4ncc5cnn(C6COC6)c5n4)CC3)cc2)c1=O [Compound 60] | 5.04
10 | CC(C)n1cncc(-c2ccc(C3(NC(=O)c4ncc5cnn(CC6CC6)c5n4)CC3)cc2)c1=O [Compound 61] | 7.32
11 | CC(C)n1cncc(-c2ccc(C3(NC(=O)c4ncc5cnn(CC6CCC6)c5n4)CC3)cc2)c1=O [Compound 62] | 7.57
12 | CC(C)n1cncc(-c2ccc(C3(NC(=O)c4ncc5cnn(-c6ccccn6)c5n4)CC3)cc2)c1=O [Compound 63] | 5.03
13 | O=C(NC1(c2ccc(-c3cncn(CC4CC4)c3=O)cc2)CC1)c1ncc2cnn(CC3CC3)c2n1 [Compound 64] | 7.10
14 | CC(C)n1ncc2cnc(C(=O)NC3(c4ccc(-c5cncn(C6CC(F)(F)C6)c5=O)cc4)CC3)nc21 [Compound 65] | 6.06
15 | CC(C)n1ncc2cnc(C(=O)NC3(c4ccc(-c5cncn(CC6CCC6)c5=O)cc4)CC3)nc21 [Compound 66] | 7.28
16 | CC(C)n1ncc2cnc(C(=O)NC3(c4ccc(-c5cncn([C@H]6C[C@@H]6F)c5=O)cc4)CC3)nc21 [Compound 67] | 5.25
17 | C[C@H](n1cncc(-c2ccc(C3(NC(=O)c4ncc5cnn(CC6CC6)c5n4)CC3)cc2)c1=O)C(F)(F)F [Compound 68] | 7.49
18 | CC(C)n1ncc2cnc(C(=O)NC3(c4ccc(-c5cncn([C@@H]6C[C@@H]6F)c5=O)cc4)CC3)nc21 [Compound 69] | 7.01
19 | C[C@@H](n1cncc(-c2ccc(C3(NC(=O)c4ncc5cnn(CC6CC6)c5n4)CC3)cc2)c1=O)C(F)(F)F [Compound 70] | 7.92
20 | C[C@H](n1cncc(-c2ccc(C3(NC(=O)c4ncc5cnn(CC6CC6)c5n4)CC3)c(F)c2)c1=O)C(F)(F)F [Compound 71] | 7.70

Row | Compound | pIC50
21 | CC(C)n1cncc(-c2ccc(C3(NC(=O)c4ncc5cnn(CC6CC6)c5n4)CC3)c(F)c2)c1=O [Compound 72] | 7.80
22 | CC(C)n1cncc(-c2ccc(C3(NC(=O)c4ncc5cnn(CC6CC6)c5n4)CC3)cc2F)c1=O [Compound 73] | 7.39
23 | CC(C)n1ncc2cnc(C(=O)NC3(c4ccc(-c5cncn(CC6CC6)c5=O)cc4F)CC3)nc21 [Compound 74] | 7.52
24 | CC(C)n1ncc2cnc(C(=O)NC3(c4ccc(-c5cncn(CC6CC6)c5=O)c(F)c4)CC3)nc21 [Compound 75] | 7.39
25 | C[C@@H](n1cncc(-c2ccc(C3(NC(=O)c4ncc5cnn(CC6CC6)c5n4)CC3)c(F)c2)c1=O)C(F)(F)F [Compound 76] | 7.49
26 | CC(C)n1ncc2cnc(C(=O)NC3(c4ccc(-c5cncn(C6CCOCC6)c5=O)cc4)CC3)nc21 [Compound 77] | 6.82
27 | CC(C)n1ncc2cnc(C(=O)NC3(c4ccc(-c5cncn(C6(C)CC6)c5=O)cc4)CC3)nc21 [Compound 78] | 7.36
28 | CC(C)n1ncc2cnc(C(=O)NC3(c4ccc(-c5cncn(C6(C)CCC6)c5=O)cc4)CC3)nc21 [Compound 79] | 8.00
29 | CC(C)n1ncc2cnc(C(=O)NC3(c4ccc(-c5cncn([C@H](C)C6CC6)c5=O)cc4)CC3)nc21 [Compound 84, (R)—N-(1-(4-(1-(1-cyclopropylethyl)-6-oxo-1,6-dihydropyrimidin-5-yl)phenyl)cyclopropyl)-1-i-propyl-1H-pyrazolo[3,4-d]pyrimidine-6-carboxamide] | 8.15
30 | CC(C)n1ncc2cnc(C(=O)NC3(c4ccc(-c5cncn([C@@H](C)C6CC6)c5=O)cc4)CC3)nc21 [Compound 85, (S)—N-(1-(4-(1-(1-cyclopropylethyl)-6-oxo-1,6-dihydropyrimidin-5-yl)phenyl)cyclopropyl)-1-i-propyl-1H-pyrazolo[3,4-d]pyrimidine-6-carboxamide] | 7.89
31 | CC(C)n1ncc2cnc(C(=O)NC3(c4ccc(-c5cncn(CC6(C)CC6)c5=O)cc4)CC3)nc21 [Compound 86] | 7.72
32 | CC(C)n1ncc2cnc(C(=O)NC3(c4ccc(-c5cncn([C@H]6C[C@H](F)C6)c5=O)cc4)CC3)nc21 [Compound 87, N-(1-(4-(1-(trans-3-fluorocyclobutyl)-6-oxo-1,6-dihydropyrimidin-5-yl)phenyl)cyclopropyl)-1-i-propyl-1H-pyrazolo[3,4-d]pyrimidine-6-carboxamide] | 6.41
33 | CC(C)n1cncc(-c2ccc(C3(NC(=O)c4ncc5cnn([C@H](C)C6CC6)c5n4)CC3)cc2)c1=O [Compound 89, (R)-1-(1-cyclopropylethyl)-N-(1-(4-(1-i-propyl-6-oxo-1,6-dihydropyrimidin-5-yl)phenyl)cyclopropyl)-1H-pyrazolo[3,4-d]pyrimidine-6-carboxamide] | 7.42
34 | CC(C)n1cncc(-c2ccc(C3(NC(=O)c4ncc5cnn([C@@H](C)C6CC6)c5n4)CC3)cc2)c1=O [Compound 90, (S)-1-(1-cyclopropylethyl)-N-(1-(4-(1-i-propyl-6-oxo-1,6-dihydropyrimidin-5-yl)phenyl)cyclopropyl)-1H-pyrazolo[3,4-d]pyrimidine-6-carboxamide] | 7.92
35 | CC(C)n1cncc(-c2ccc(C3(NC(=O)c4ncc5cnn(C(C)C)c5n4)CC3)c(F)c2Cl)c1=O [Compound 91] | 6.10
36 | CC(C)n1cncc(-c2cc(F)c(C3(NC(=O)c4ncc5cnn(C(C)C)c5n4)CC3)c(F)c2)c1=O [Compound 92] | 5.50
37 | CC(C)n1cncc(-c2ccc(C3(NC(=O)c4ncc5cnn(C(C)C)c5n4)CC3)c(F)c2F)c1=O [Compound 93] | 6.83
38 | CC(C)n1ncc2cnc(C(=O)NC3(c4cc(F)c(-c5cncn(CC6CC6)c5=O)cc4F)CC3)nc21 [Compound 94] | 7.30
39 | CC(C)n1ncc2cnc(C(=O)NC3(c4ccc(-c5cncn(CC6CC6)c5=O)c(F)c4F)CC3)nc21 [Compound 95] | 6.84
